Data taken from patent US8449886B2, “Combination of anti-CTLA4 antibody with tubulin modulating agents for the treatment of proliferative diseases” (Bristol-Myers Squibb Company, priority 2008, dated 2013).

Experiments:
M109 lung carcinoma [1] = test: M109 rechallenge of tumor-free mice with a lethal M109 cell inoculum; type: in vivo; details: tumor-free mice by day 97 rechallenged; 5 ixabepilone mice, 8 combination mice
Description: To determine whether the combination of CTLA-4+ixabepilone produced a memory immune response able to reject a secondary tumor challenge, animals free of tumors by day 97 were re-challenge with a lethal M109 cell inoculum. For this part of the study, M109 cells were injected into: a) 10 naïve mice (to control for tumor growth); and in study mice free of tumors: b) 5 mice previously treated with ixabepilone and c) 8 mice previously treated with ixabepilone+CTLA-4 mAb. All control mice developed progressive tumors with a median tumor size of 1000 mm^3 10 days later whereas 4 out of 5 mice in the Ixabepilone-treated mice developed tumors (80%).

M109 lung carcinoma [2] = test: M109 lung carcinoma tumor model, initial tumor implantation; type: in vivo, mice; details: for antitumor effect in M109: Study 40, text and FIG. 1
Description: (§1) Tumor cell lines were maintained in vitro. Treatments were initiated when the subcutaneous tumors reached a median size between 100-200 mm^3 (established model) or prior to detection (initiation model). Tumors were measured twice weekly and tumor size (mm^3) was calculated as […]. Body weights were obtained weekly. The tumor models used in these studies are outlined in Table 1.
(§2) The dose levels, routes and dosing schedules are indicated for each particular study described below. Antibodies and chemotherapeutic agents were administered intraperitoneally (i.p.). Each treatment regimen consisted of a cohort of eight to ten mice. Anti-tumor activity, defined as percentage tumor growth inhibition, was calculated as follows: % Tumor Growth Inhibition=100−[(Tt/To)/(Ct/Co)]/100−(Ct/Co) where,
In these studies treatments with chemotherapeutic agents were initiated when tumors were palpable, on day 3 after tumor implantation. […] As in the studies conducted in the SA1N and EMT-6 tumor lines, CTLA-4 mAb was dosed one day after treatment with chemotherapy.

CT26 colon carcinoma = CT26 colon carcinoma tumor model; type: in vivo, mice; details: for antitumor effect in CT26: footnotes and FIG. 2
Description: as §1
as §2, with “where, […]” for “where,”

[3] = tested on: SA1N fibrosarcoma, M109 lung carcinoma, EMT-6 mammary carcinoma, CT-26 colon carcinoma and B16 melanoma; test: Efficacy studies of CTLA-4 mAb with ixabepilone or paclitaxel across murine tumor models (summary statements); type: in vivo, mice; details: animals with complete regressions rechallenged with a lethal dose of tumor cells
Description: as §1, §2
(§3) In addition, another parameter used to define efficacy was to determine time to tumor progression to target size (T-C), where the time (days) for the median tumor size of control (C) mice to reach target size was subtracted to the time for median tumor size of treated (T) mice to reach target size.

EMT-6 mammary carcinoma = EMT-6 mammary carcinoma tumor model; type: in vivo, mice; details: Study 27; for T − C: IP, treatment from day 3/4, ixabepilone 8 mg/kg, paclitaxel 24 mg/kg, CTLA-4 mAb 20 mg/kg
Description: as §1, §2, §3

SA1N fibrosarcoma = SA1N fibrosarcoma tumor model, subcutaneous, established tumors; type: in vivo, mice; details: for % TGI: IP every 4 days x3, ixabepilone 8 mg/kg, CTLA-4 mAb 20 mg/kg; for T − C: target size 500 mm^3
Description: Antibody UC10 (hamster IgG anti-mouse CTLA-4) was produced and purified by BMS (Protein Therapeutics Division, Hopewell, N.J., USA). […] Stock solutions of anti-CTLA-4 were kept at −80° C. and were thawed out at 4° C. prior to use. Control antibody consisted of a polyclonal hamster IgG (Jackson ImmunoResearch, West Grove, Pa.). Dosing solutions of Anti-CTLA-4 and hamster IgG control were prepared weekly in sterile phosphate buffered saline (pH 7.0).
Eight to twelve week-old female BALB/c, A/J or C57/BL6 mice were purchased from Harlan, Indianapolis, Ind. Mice received food and water ad libitum, and were maintained in a controlled environment according to AALAC regulations.
as §1, §2
Tt=median tumor size of treated group at the end of treatment
To=median tumor size of treated group at treatment initiation
Ct=median tumor size of control group at the end of treatment
Co=median tumor size at treatment initiation
as §3
Nonparametric analysis using the Wilcoxon test was used to determine statistical significance.
SA1N fibrosarcoma is an inherently immunogenic tumor line which is sensitive to the effects of CTLA-4 blockade. […] Animals were implanted with SA1N cells subcutaneously and treatments were initiated when tumors reached 100-150 mm^3. Experimental groups consisted of cohorts of 8 mice. […] In the combination groups, CTLA-4 mab was administered one day after each chemotherapy treatment.

[4] = tested on: paclitaxel-sensitive (A2780, HCT116 and LS174T) and paclitaxel-resistant human colon tumors (HCT116NM46), ovarian carcinoma (Pat-7 and A2780Tax) and breast …; test: Preclinical pharmacology studies of Compound 1 in tumor models; type: in vivo
[5] = Study 17, study terminated day 116

Compound	mice that developed tumors after M109 rechallenge (M109 lung carcinoma [1])	antitumor effect in M109 (M109 lung carcinoma [2])	% Tumor-Free Mice after Initial Tumor Implantation (M109 lung carcinoma [2]; Study 40, footnote: percentage of animals that develop tumors following implantation on Day 0, chemotherapy from day 3, IP) [%]	% Complete Regressions/Total # mice (CT26 colon carcinoma; IP every 4 days x3, CTLA-4 mAb 20 mg/kg days 5, 9, 13, chemotherapy days 4, 8, 12)	antitumor effect in CT26 (CT26 colon carcinoma)	protection against subsequent tumor rechallenge [3]	% Tumor-free Mice (EMT-6 mammary carcinoma) [%]	T − C (EMT-6 mammary carcinoma) [days]	% TGI (SA1N fibrosarcoma; Study 9, calculated Day 36 (last measurement for control group)) [%]	T − C (SA1N fibrosarcoma; Study 9, study terminated day 39) [days]	% TGI (SA1N fibrosarcoma; Study 17, calculated Day 33, paclitaxel 24 mg/kg) [%]	T − C (SA1N fibrosarcoma; [5]) [days]	antitumor effect of single agent in EMT-6 (EMT-6 mammary carcinoma)	T − C (SA1N fibrosarcoma; Study 11, study terminated day 52) [days]	antitumor effect in SA1N (SA1N fibrosarcoma; two independent studies)	oral efficacy ([4]; oral vs parenteral administration)	antitumor activity ([4]; paclitaxel-sensitive and paclitaxel-resistant tumor models)
C/C(=C\c1csc(C)n1)[C@@H]1C[C@@H]2O[C@]2(C)CCC[C@H](C)[C@H](O)[C@@H](C)C(=O)C(C)(C)[C@@H](O)CC(=O)N1 [Ixabepilone, (1S,3S,7S,10R,11S,12S,16R)-7,11-dihydroxy-8,8,10,12,16-pentamethyl-3-[(1E)-1-methyl-2-(2-methyl-4-thiazolyl)ethenyl]-17-oxa-4-azabicyclo[14.1.0]heptadecane-5,9-dione]	4 out of 5	very effective	50	0/10	neither paclitaxel or ixabepilone produced any measurable antitumor activity	only partial protection	20	19	92	11	83	7					
5beta,20-Epoxy-1,2alpha,4,7beta,10beta,13alpha-hexahydroxytax-11-en-9-one 4,10-diacetate 2-benzoate 13-ester with (2R,3S)—N-benzoyl-3-phenylisoserine [Paclitaxel]		did not produce antitumor effects			neither paclitaxel or ixabepilone produced any measurable antitumor activity			0				0	ineffective	13	variable effect		
C/C(=C\c1csc(C)n1)[C@@H]1C[C@@H]2O[C@]2(C)CCC[C@H](C)[C@H](O)[C@@H](C)C(=O)C(C)(C)[C@@H](O)CC(=O)N1 (relative stereo) [Compound 1, [1S-[1R*,3R*(E),7R*,10S*,11R*,12R*,16S*]]-7,11-dihydroxy-8,8,10,12,16-pentamethyl-3-[1-methyl-2-(2-methyl-4-thiazolyl)ethenyl]-4-aza-17-oxabicyclo[14.1.0]heptadecane-5,9-dione]																orally efficacious	very impressive and broad spectrum of antitumor activity
